Results published in patent publication US10894036B2, “Use of marizomib for the treatment of central nervous system (CNS) cancers” (Celgene International II Sàrl, priority 2016, dated 2021).
“And” between values parts separate entries of the source, which are not always exact repeats. Identical values can stand only once. “Also recorded” adds a separate entry of the source. Like-named read-outs stand apart in the source and are kept apart here.

Tests used:
CNS-MM = assay: Compassionate use of marizomib in CNS-myeloma patients: response (IMWG, CSF, MRI, neurological); format: in vivo, human
Protocol: (§1) This example sets forth seven case studies in which CNS-MM (i.e., multiple myeloma with CNS involvement) was treated using marizomib alone or in combination with other agents.
Daratumumab (16 mg/kg weekly×2 months) was added with continued marizomib.
Marizomib was given on compassionate use protocol (see above) at 0.7 mg/m^2 as a 10 min IV infusion on days 1, 8 and 15 along with dexamethasone on a 28 day Cycle.
In July 2016, marizomib was given on compassionate use protocol at 0.8 mg/m^2 as a 10 min IV infusion on days 1, 8 and 15 along with dexamethasone on a 28 day Cycle. Pomalidomide was also given at 4 mg daily on days 1 through days 21.
In August 2016, marizomib was given on compassionate use protocol at 0.7 mg/m^2 as a 10 min IV infusion on days 1, 8 and 15 along with dexamethasone on a 28 day Cycle. Pomalidomide was dosed at 4 mg daily on days 1 through days 21.
The patient was treated with marizomib, oral pomalidomide, and oral dexamethasone.
All patients had systemic disease with CNS involvement.

[1] = Compassionate use of marizomib in CNS-myeloma patients: safety; format: in vivo, human
Protocol: as §1
As set forth herein, 7 patients were treated under single patient compassionate use protocols with MRZ for CNS-myeloma. Marizomib was well-tolerated. […] One patient has been on the study for 13 months with complete resolution of both […].

[2] = tested on: chymotrypsin-like (CT-L) proteasome activity; assay: Proteasome inhibition in packed whole blood: CT-L; format: in vivo, human
From the text: (§2) The drugs were infused on 28-Day Cycles.
(§3) Change in proteasome activities in packed whole blood (PWB) lysates and peripheral blood mononuclear cell (PBMC) lysates, comparing pre-drug and post drug levels on Days 1, 8, and 15 of Cycle 1; Days 1 and 15 of each Cycle thereafter; and at the End-of Treatment Visit.
(§4) The laboratory correlates include assessment of the percentage inhibition of proteasome function (evaluated by measurement of CT-L, T-L and C-L activity in blood isolates such as whole blood and PBMC lysates.
(§5) PD analysis will include change in proteasome activities (whole blood lysates and PBMC lysates) by comparing pre-drug and post drug levels on Days 1, 8, and 15 (i.e., for each dose) of Cycle 1 and Days 1 and 15 (i.e., for the first and last doses) of each cycle thereafter.

[3] = target: T1, caspase-like (C-L) proteasome activity (Homo sapiens, UniProt P28072); assay: Proteasome inhibition in packed whole blood: C-L; format: in vivo; conditions: PWB post-Marizomib infusion (peak effect)
T1 construct: Change in proteasome activities in packed whole blood (PWB) lysates and peripheral blood mononuclear cell (PBMC) lysates; from tissue; host or cells: packed whole blood lysates of dosed glioma patients
From the text: as §2, §3, §4, §5

20S Proteasome = assay: 20S proteasome activity (% inhibition) in rodent brain; format: in vivo, mouse
proteasome = assay: Proteasome activity in monkey brain; format: in vivo; conditions: monkey (primate)
[4] = 7 CNS-MM patients, listed as Marizomib
[5] = tumor-bearing mouse, IV, individual mice 1 and 2
[6] = tumor-bearing mouse, IV, individual mice 1 and 2, NE = No Effect, listed as MRZ
[7] = tumor-bearing mouse, IV, individual mice 1 and 2, listed as MRZ
[8] = MRZ 0.7 mg/m^2, C1D8 (17 May 2016)
[9] = MRZ 0.8 mg/m^2, C1D8 (17 May 2016)
[10] = MRZ 0.8 mg/m^2, C1D8 (Table 43)

In the case of `C[C@@]12OC(=O)[C@]1([C@@H](O)[C@@H]1C=CCCC1)NC(=O)[C@@H]2CCCl` [marizomib], the complete responses (CNS-MM; 7 CNS-MM patients) is reported as “two”, the partial responses (CNS-MM; 7 CNS-MM patients) is reported as 3 and the “patients with at least a partial response (overall response rate)” value (“patients … (overall response rate)” below) (CNS-MM; 7 CNS-MM patients) is reported as “five of seven”. For the same compound, the “patients with survival greater than four months” value (CNS-MM; 7 CNS-MM patients) was “four of seven”, the “patients … (overall response rate)” value (CNS-MM; 7 CNS-MM patients, listed as MRZ) was “Five of 7” and the complete responses (CNS-MM; [4]) was 2. For the same compound, the “patients … (overall response rate)” value (CNS-MM; [4]) was 5/7, the “Neurological Assessment” value (CNS-MM; Case 1) was “Reduction of CSF plasma cells” and the “reduction of CSF plasmacytosis” value (CNS-MM; Case 1) was 99%. The “Reduction of CSF plasma cells” value (CNS-MM; Case 1, C2D1) was “(90% C2D1)”, the “Neurological Assessment” value (CNS-MM; Case 2) was “sustained complete resolution of CSF plasmacytosis; also recorded: No CSF plasma cells detected; also recorded: Stable remission by MRI” and the Response (CNS-MM; Case 2, ongoing C13) was “CR by serology; stable remission”. The “Neurological Assessment” value (CNS-MM; Case 3) was “undetectable CSF plasmacytosis since C3D1; also recorded: No evidence of FDG-avid lesions”, the “IMWG Assessment Systemic Disease” value (CNS-MM; Case 3: MRZ 0.8 mg/m^2 + POM 4 mg + DEX 20 mg) was “ongoing complete response” and the Response (CNS-MM; Case 3, ongoing C8) was “CR - no evidence of active disease:”. The “Neurological Assessment” value (CNS-MM; Case 4) was “Transient improvement through”, the Response (CNS-MM; Case 4, discontinued on C3) was “Best response PR with PD after C3” and the Response (CNS-MM; Case 5, discontinued C1) was “Pleural effusion following C1D1”. The “Neurological Assessment” value (CNS-MM; Case 6) was “resolution of CNS disease; also recorded: Complete resolution of central”, the “reduction in systemic paraprotein” value (CNS-MM; Case 6) was 77% and the Paraprotein after decrease (CNS-MM; Case 6, from 18 g/L) was 18 to 4 g/L. The “IMWG Assessment Systemic Disease” value (CNS-MM; Case 7: MRZ 0.7 mg/m^2 + LEN 25 mg + DEX 10 mg) was “PD (increase in tumor of ≥25% from lowest response value)”, the “IMWG Assessment Systemic Disease” value (CNS-MM; Case 7: MRZ 0.7 mg/m^2 + LEN 25 mg + DEX 10 mg, listed as MRZ) was “progressive disease” and the CNS adverse events ([1]; 7 CNS-MM patients) was “no CNS adverse events”. The tolerability ([1]; 7 CNS-MM patients) was “well-tolerated”, the CNS adverse events [1, 4] was “No CNS-adverse events” and the Safety ([1]; Case 1) was “No adverse events were reported”. The Safety ([1]; Case 1, listed as MRZ) was “MRZ was well tolerated”, the Safety ([1]; Case 2) was “No adverse events or serious adverse events were observed” and the Safety ([1]; Case 2, listed as MRZ) was “No concerning AEs”. For the same compound, the Safety ([1]; Case 3) was “grade 1 adverse event”, the Safety ([1]; Case 3, listed as MRZ) was “Grade 1 shortness of” and the Safety ([1]; Case 4) was “well-tolerated with no adverse events reported”. For the same compound, the Safety ([1]; Case 4, listed as MRZ) was “Tolerated treatment”, the Safety ([1]; Case 5) was “serious adverse event” and the Safety ([1]; Case 5, listed as MRZ) was “AE due to PD,”. For the same compound, the Safety ([1]; Case 6) was “grade 2 adverse event”, the Safety ([1]; Case 6, listed as MRZ) was “Overall, no safety” and the Safety ([1]; Case 7, listed as MRZ) was “No adverse events or safety concerns were noted; also recorded: No AEs or safety”. The “% CT-L inhibition” value ([2]; PWB post-MRZ infusion (peak effect), 0.7 mg/m^2 (17 May 2016)) was 100 ± 0 (3) %, the “% CT-L inhibition” value ([2]; PWB post-Marizomib infusion (peak effect), 0.7 mg/m^2) was 100 ± 0 (3) % and the “% CT-L inhibition” value ([2]; PWB post-Marizomib infusion (peak effect), 0.8 mg/m^2) was 100 ± 0 (3) %. The “sustained inhibition of the CT-L domain, pre-infusion” value ([2]; packed whole blood, up to two weeks after marizomib dosing) was 60-80%, the inhibition at […]2 ([3]; 0.55 mg/m^2) was 21 ± 7.8% and the inhibition at 0.7 mg/m2 ([3]; 0.7 mg/m^2) was 50.4 ± 9.1%. The inhibition at 0.8 mg/m2 ([3]; 0.8 mg/m^2) was 51.9 ± 8.3%, the “proteasome activity in brain” value (20S Proteasome; mouse) was “inhibits proteasome activity” and the “CT-L activity in brain” value (20S Proteasome; tumor-bearing mouse) was “inhibits CT-L activity in brain”. The “20S Proteasome Activity (% Inhibition), Blood, Peak (2 hr)” value (20S Proteasome; [5]) was 99%, the “20S Proteasome Activity (% Inhibition), Blood, Trough” value (20S Proteasome; [5]) was 87% and the “20S Proteasome Activity (% Inhibition), Brain, Peak (2 hr)” value (20S Proteasome; [6]) was 94% and 98%. For the same compound, the “20S Proteasome Activity (% Inhibition), Brain, Trough” value (20S Proteasome; [6]) was 52% and 41%, the “20S Proteasome Activity (% Inhibition), Tumor, Peak (2 hr)” value (20S Proteasome; [7]) was 56% and 77% and the “20S Proteasome Activity (% Inhibition), Tumor, Trough” value (20S Proteasome; [7]) was 15% and 0%. For the same compound, the “proteasome activity in brain” value (proteasome) was “inhibition of proteasome activity; also recorded: inhibits proteasome activity”, the CL (IV infusion) was “high” and the T½ (IV infusion) was “short”. For the same compound, the Vd (IV infusion) was “large”, the CLobs [8] was 162 (1) mL/min/m^2 and the Cmax [8] was 65 ± 31 (3) ng/mL. For the same compound, the Vss obs [8] was 7377 (1) mL/m^2, the CLobs (MRZ 0.7 mg/m^2, C1D8 (Table 43)) was 272 ± 166 (3) L/hr and the CLobs [9] was 3822 ± 1798 (2) mL/min/m^2. The Vss obs [9] was 12379 ± 8698 (2) mL/m^2, the CLobs [10] was 304 ± 85.0 (3) L/hr and the Vd [10] was 55.0 ± 19.7 (3) L. The Vss obs (MRZ […]^2, C1D8 (17 May 2016)) was 12971 ± 7600 (3) mL/m^2, the CLobs (marizomib 0.7 mg/m^2 IV, C1D8, blood) was 272 ± 166 (3) L/hr and the CLobs (marizomib 0.8 mg/m^2 IV, C1D8, blood) was 304 ± 85.0 (3) L/hr. For the same compound, the “MRZ pharmacokinetic parameters: effect of co-administration” value (with BEV) was “not affected by co-administration”.
